Data from the supplement of paper PMC10627819.

Assays:
S. aureus DSM 20231 [1] = experiment: Bliss interaction score (quartile over a dose matrix) (fitness difference); higher = more antagonism (negative = synergy)
Method in brief: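 Growth was read as OD595 when cultures entered stationary phase, and each value was divided by the plate's robust no-drug mean and capped at 1. This normalised ratio is the fitness value, and fitness for each single drug came from the combination data. The Bliss score subtracts the expected fitness, taken as the product, from the observed fitness and is given as quartiles across technical, biological and donor/recipient replicates.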

S. aureus DSM 20231 [2] = experiment: fitness (endpoint OD595 vs no drug) (fraction); higher = more growth
Method in brief: (§1)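 Background-subtracted growth curves were the basis for fitness, taken as the optical density at entry into stationary phase over the robust mean of no-drug control wells. A cap of 1 was applied. The curves came from OD595 readings every 30 min for 14 h at 37 °C, in 384-well plates seeded at OD595 0.01 with 30 µl, or 55 µl for S. pneumoniae.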

S. aureus Newman = experiment: as above
Method in brief: as §1

S. pneumoniae D39V = experiment: as above
Method in brief: as §1

[3] = first compound 0.0156 µg/mL, partner 0.15 µg/mL
[4] = first compound 0.0156 µg/mL, partner 0.3 µg/mL
[5] = first compound 0.0156 µg/mL, partner 0.6 µg/mL
[6] = first compound 0.0312 µg/mL, partner 0.15 µg/mL
[7] = first compound 0.0312 µg/mL, partner 0.3 µg/mL
[8] = first compound 0.0312 µg/mL, partner 0.6 µg/mL
[9] = first compound 0.0625 µg/mL, partner 0.15 µg/mL
[10] = first compound 0.0625 µg/mL, partner 0.3 µg/mL
[11] = first compound 0.0625 µg/mL, partner 0.6 µg/mL
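Throughout, for Bliss interaction score (quartile over a dose matrix): first quartile when negative (synergy) and third quartile when positive (antagonism).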

Compound `C=C1/C(=C\C=C2/CCC[C@]3(C)[C@@H]([C@H](C)CCCC(C)C)CC[C@@H]23)C[C@@H](O)C[C@@H]1O` [Alfacalcidol] + O=C1CN(/N=C/c2ccc([N+](=O)[O-])o2)C(=O)N1 [Nitrofurantoin] has a Bliss interaction score (S. aureus DSM 20231 [1]) of 0.185.

`CC[C@H](C)[C@H](N)C1=N[C@H](C(=O)N[C@@H](CC(C)C)C(=O)N[C@H](CCC(=O)O)C(=O)N[C@H](C(=O)N[C@H]2CCCCNC(=O)[C@H](CC(N)=O)NC(=O)[C@@H](CC(=O)O)NC(=O)[C@H](Cc3cnc[nH]3)NC(=O)[C@@H](Cc3ccccc3)NC(=O)[C@H]([C@@H](C)CC)NC(=O)[C@@H](CCCN)NC2=O)[C@@H](C)CC)CS1` [Bacitracin] + CCCSc1nc(N[C@@H]2C[C@H]2c2ccc(F)c(F)c2)c2nnn([C@@H]3C[C@H](OCCO)[C@@H](O)[C@H]3O)c2n1 [Ticagrelor] showed a Bliss interaction score (S. aureus DSM 20231 [1]; main component drawn) of -0.27.

`CC[C@H](C)[C@H](N)C1=N[C@H](C(=O)N[C@@H](CC(C)C)C(=O)N[C@H](CCC(=O)O)C(=O)N[C@H](C(=O)N[C@H]2CCCCNC(=O)[C@H](CC(N)=O)NC(=O)[C@@H](CC(=O)O)NC(=O)[C@H](Cc3cnc[nH]3)NC(=O)[C@@H](Cc3ccccc3)NC(=O)[C@H]([C@@H](C)CC)NC(=O)[C@@H](CCCN)NC2=O)[C@@H](C)CC)CS1` [Bacitracin] + C[C@H]1C[C@@H]2[C@H]([C@@H](O)C[C@@]3(C)[C@H]2CC[C@]3(O)C(=O)CO)[C@@]2(C)C=CC(=O)C=C12 [Methylprednisolone] showed a Bliss interaction score (S. aureus DSM 20231 [1]; main component drawn) of -0.282.

For `O=c1[nH]cc(F)c(=O)[nH]1` [Fluorouracil] + CN(C)C(=O)C(CCN1CCC(O)(c2ccc(Cl)cc2)CC1)(c1ccccc1)c1ccccc1 [Loperamide], the Bliss interaction score (S. aureus DSM 20231 [1]) was 0.195.

In the case of `O=c1[nH]cc(F)c(=O)[nH]1` [Fluorouracil] + CN[C@@H]1[C@H](O[C@H]2[C@H](O[C@H]3[C@H](O)[C@@H](O)[C@H](N=C(N)N)[C@@H](O)[C@@H]3N=C(N)N)O[C@@H](C)[C@]2(O)C=O)O[C@@H](CO)[C@H](O)[C@H]1O [Streptomycin], the Bliss interaction score (S. aureus DSM 20231 [1]) is reported as -0.184.

`O=c1[nH]cc(F)c(=O)[nH]1` [Fluorouracil] + O=C1CN(/N=C/c2ccc([N+](=O)[O-])o2)C(=O)N1 [Nitrofurantoin] gave a Bliss interaction score (S. aureus DSM 20231 [1]) of -0.206.

`CC[C@H](c1ccc(O)cc1)[C@@H](CC)c1ccc(O)cc1` [Hexestrol] + CN(C)C(=O)C(CCN1CCC(O)(c2ccc(Cl)cc2)CC1)(c1ccccc1)c1ccccc1 [Loperamide] showed a Bliss interaction score (S. aureus DSM 20231 [1]) of -0.456.

Work on `CC[C@H](c1ccc(O)cc1)[C@@H](CC)c1ccc(O)cc1` [Hexestrol] + CO[C@@]12[C@H](COC(N)=O)C3=C(C(=O)C(C)=C(N)C3=O)N1C[C@@H]1N[C@@H]12 [MitomycinC] yielded a Bliss interaction score (S. aureus DSM 20231 [1]) of -0.248.

Work on `CC(C)Cc1ccc(C(C)C(=O)O)cc1` (centres undefined) [Ibuprofen] + C/C(=C\C(=O)OCCCCCCCCC(=O)O)C[C@@H]1OC[C@H](C[C@@H]2O[C@H]2[C@@H](C)[C@H](C)O)[C@@H](O)[C@H]1O [Pseudomonic acid] yielded a Bliss interaction score (S. aureus DSM 20231 [1]) of 0.169.

With `CC(C)Cc1ccc(C(C)C(=O)O)cc1` (centres undefined) [Ibuprofen] + COc1cc(Cc2cnc(N)nc2N)cc(OC)c1OC [Trimethoprim] the Bliss interaction score (S. aureus DSM 20231 [1]) was -0.145.

`CC(=O)NC[C@H]1CN(c2ccc(N3CCOCC3)c(F)c2)C(=O)O1` [Linezolid] + COc1ccc2[nH]c([S+]([O-])Cc3ncc(C)c(OC)c3C)nc2c1 [Omeprazole] gave a Bliss interaction score (S. aureus DSM 20231 [1]) of 0.192.

In the case of `CN(Cc1cnc2nc(N)nc(N)c2n1)c1ccc(C(=O)N[C@@H](CCC(=O)O)C(=O)O)cc1` [Methotrexate] + CC1(C)S[C@@H]2[C@H](NC(=O)Cc3ccccc3)C(=O)N2[C@H]1C(=O)O [PenicillinG], the Bliss interaction score (S. aureus DSM 20231 [1]) is reported as -0.169.

With `CN(Cc1cnc2nc(N)nc(N)c2n1)c1ccc(C(=O)N[C@@H](CCC(=O)O)C(=O)O)cc1` [Methotrexate] + COc1cc(Cc2cnc(N)nc2N)cc(OC)c1OC [Trimethoprim] the Bliss interaction score (S. aureus DSM 20231 [1]) was -0.242.

With `CO[C@@]12[C@H](COC(N)=O)C3=C(C(=O)C(C)=C(N)C3=O)N1C[C@@H]1N[C@@H]12` [Mitomycin C] + CN(N=O)C(=O)N[C@@H](C=O)[C@@H](O)[C@H](O)[C@H](O)CO [Streptozotocin] the fitness (S. aureus DSM 20231 [2]; [3]) was 0.706, the fitness (S. aureus DSM 20231 [2]; [4]) was 0.633 and the fitness (S. aureus DSM 20231 [2]; [5]) was 0.571. The fitness (S. aureus DSM 20231 [2]; [6]) was 0.656, the fitness (S. aureus DSM 20231 [2]; [7]) was 0.645 and the fitness (S. aureus DSM 20231 [2]; [8]) was 0.56. It also gave a fitness (S. aureus DSM 20231 [2]; [9]) of 0.541, a fitness (S. aureus DSM 20231 [2]; [10]) of 0.51 and a fitness (S. aureus DSM 20231 [2]; [11]) of 0.433. It also gave a fitness (S. aureus Newman; [3]) of 0.654, a fitness (S. aureus Newman; [4]) of 0.615 and a fitness (S. aureus Newman; [5]) of 0.462. For the same compound, the fitness (S. aureus Newman; [6]) was 0.578, the fitness (S. aureus Newman; [7]) was 0.548 and the fitness (S. aureus Newman; [8]) was 0.381. It also gave a fitness (S. aureus Newman; [9]) of 0.433, a fitness (S. aureus Newman; [10]) of 0.379 and a fitness (S. aureus Newman; [11]) of 0.185. It also gave a fitness (S. pneumoniae D39V; first compound 0.001075 µg/mL, partner 1.2 µg/mL) of 0.899, a fitness (S. pneumoniae D39V; first compound 0.001075 µg/mL, partner 2.4 µg/mL) of 0.911 and a fitness (S. pneumoniae D39V; first compound 0.001075 µg/mL, partner 4.8 µg/mL) of 0.915. The fitness (S. pneumoniae D39V; first compound 0.002 µg/mL, partner 1.2 µg/mL, one replicate) was 0.815, the fitness (S. pneumoniae D39V; first compound 0.002 µg/mL, partner 2.4 µg/mL, one replicate) was 0.796 and the fitness (S. pneumoniae D39V; first compound 0.002 µg/mL, partner 4.8 µg/mL, one replicate) was 0.653. It also gave a fitness (S. pneumoniae D39V; first compound 0.00215 µg/mL, partner 1.2 µg/mL) of 0.84, a fitness (S. pneumoniae D39V; first compound 0.00215 µg/mL, partner 2.4 µg/mL) of 0.886 and a fitness (S. pneumoniae D39V; first compound 0.00215 µg/mL, partner 4.8 µg/mL) of 0.848. For the same compound, the fitness (S. pneumoniae D39V; first compound 0.004 µg/mL, partner 1.2 µg/mL, one replicate) was 0.769, the fitness (S. pneumoniae D39V; first compound 0.004 µg/mL, partner 2.4 µg/mL, one replicate) was 0.739 and the fitness (S. pneumoniae D39V; first compound 0.004 µg/mL, partner 4.8 µg/mL, one replicate) was 0.597. It also gave a fitness (S. pneumoniae D39V; first compound 0.0043 µg/mL, partner 1.2 µg/mL) of 0.74, a fitness (S. pneumoniae D39V; first compound 0.0043 µg/mL, partner 2.4 µg/mL) of 0.777 and a fitness (S. pneumoniae D39V; first compound 0.0043 µg/mL, partner 4.8 µg/mL) of 0.603. For the same compound, the fitness (S. pneumoniae D39V; first compound 0.008 µg/mL, partner 1.2 µg/mL, one replicate) was 0.525, the fitness (S. pneumoniae D39V; first compound 0.008 µg/mL, partner 2.4 µg/mL, one replicate) was 0.588 and the fitness (S. pneumoniae D39V; first compound 0.008 µg/mL, partner 4.8 µg/mL, one replicate) was 0.347.
